This note sets out measurements from patent US11395488B2, “Use of compositions comprising pelargonic acid and specific non ionic surfactants for inhibiting the growth of suckers on plants” (BELCHIM CROP PROTECTION NV, priority 2016, dated 2022).

One series concerns tobacco plants. The series is described as follows: Treatment of tobacco plants with pelargonic acid: phytotoxicity (Example 3). The conditions noted are these: PA 3.4, 5.1, 6.8 g/l; V 450-460 l/ha; interval of 7 days between treatments. It counts as in vivo, tobacco plants of the Burley and Virginia. The protocol: (§1) In an experimental embodiment tobacco plants of the Burley and Virginia were treated with a Volume (V) of 450-460l/ha with a composition comprising pelargonic acid (PA) at different concentrations (e.g., 3.4 g/l, 5.1 g/l and 6.8 g/l) with an interval of 7 days between treatments; the exact experimental details can be found in Table 1.

A further series deals with suckers on tobacco plant. The series is described as follows: Use of pelargonic acid for inhibiting the growth of suckers (Example 1, FIG. 1). It counts as in vivo, tobacco plant of the Burley variety. The conditions noted are these: Burley tobacco; pelargonic acid applied at 0.5 g/l to 50.0 g/l; FIG. 1B. From the text: To better exemplify reference is made to FIGS. 1A and 1B, which show a tobacco plant (100) of the Burley variety. […] It can be observed that at full floral development (i.e. ˜3 to 4 months) suckers (150) started to proliferate and grew into auxiliary stems.

Series [1] relates to suckers on tobacco plants. The series is described as follows: Treatment of tobacco plants with pelargonic acid: sucker growth inhibition (Example 3). It counts as in vivo, tobacco plants of the Burley and Virginia. Conditions: PA 3.4, 5.1, 6.8 g/l; V 450-460 l/ha; interval of 7 days between treatments; across all plants. The method, then:
as §1

SMILES strings stand for the structures.

With `CCCCCCCCC(=O)O` [pelargonic acid], the “phytotoxicity or adverse ecological effects” value in the series with tobacco plants is reported as “no phytotoxicity or adverse ecological effects were observed”. For the same compound, the sucker growth entry in the series on suckers on tobacco plant is given as “fully inhibited”. This compound also had a sucker growth inhibition in series [1] above 90%.
